# How the values were obtained:
# [1] = molecular target: T1, Diamine oxidase [copper-containing] (Homo sapiens, UniProt P19801); assay: DAO Inhibition Assay: Recombinant human DAO (2.4 μg/mL) was used as source of DAO enzyme activities.
# T1 sequence (P19801 whole entry): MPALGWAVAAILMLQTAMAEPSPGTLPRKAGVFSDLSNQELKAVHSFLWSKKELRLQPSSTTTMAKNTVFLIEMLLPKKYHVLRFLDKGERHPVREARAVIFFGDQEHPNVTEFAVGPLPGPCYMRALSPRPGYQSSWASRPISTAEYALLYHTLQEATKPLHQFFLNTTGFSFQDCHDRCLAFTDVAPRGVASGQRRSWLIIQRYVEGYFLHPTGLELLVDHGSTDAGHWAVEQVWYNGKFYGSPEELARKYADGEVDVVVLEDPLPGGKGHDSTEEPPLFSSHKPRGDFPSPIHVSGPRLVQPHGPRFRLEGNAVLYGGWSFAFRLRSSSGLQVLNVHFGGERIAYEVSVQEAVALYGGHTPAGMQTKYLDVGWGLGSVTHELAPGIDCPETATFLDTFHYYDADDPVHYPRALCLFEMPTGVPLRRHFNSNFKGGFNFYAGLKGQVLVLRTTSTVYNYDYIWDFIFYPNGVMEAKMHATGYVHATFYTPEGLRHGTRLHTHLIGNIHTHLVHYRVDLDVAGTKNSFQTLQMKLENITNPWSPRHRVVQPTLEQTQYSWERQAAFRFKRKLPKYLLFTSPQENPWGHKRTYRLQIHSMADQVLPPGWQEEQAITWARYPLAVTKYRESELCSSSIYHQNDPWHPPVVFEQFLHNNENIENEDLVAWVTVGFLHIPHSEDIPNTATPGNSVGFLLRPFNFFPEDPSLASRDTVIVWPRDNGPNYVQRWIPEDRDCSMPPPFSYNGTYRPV
# [2] = molecular target: T2, Amine oxidase [flavin-containing] B (Homo sapiens, UniProt P27338)
# T2 sequence (P27338 whole entry): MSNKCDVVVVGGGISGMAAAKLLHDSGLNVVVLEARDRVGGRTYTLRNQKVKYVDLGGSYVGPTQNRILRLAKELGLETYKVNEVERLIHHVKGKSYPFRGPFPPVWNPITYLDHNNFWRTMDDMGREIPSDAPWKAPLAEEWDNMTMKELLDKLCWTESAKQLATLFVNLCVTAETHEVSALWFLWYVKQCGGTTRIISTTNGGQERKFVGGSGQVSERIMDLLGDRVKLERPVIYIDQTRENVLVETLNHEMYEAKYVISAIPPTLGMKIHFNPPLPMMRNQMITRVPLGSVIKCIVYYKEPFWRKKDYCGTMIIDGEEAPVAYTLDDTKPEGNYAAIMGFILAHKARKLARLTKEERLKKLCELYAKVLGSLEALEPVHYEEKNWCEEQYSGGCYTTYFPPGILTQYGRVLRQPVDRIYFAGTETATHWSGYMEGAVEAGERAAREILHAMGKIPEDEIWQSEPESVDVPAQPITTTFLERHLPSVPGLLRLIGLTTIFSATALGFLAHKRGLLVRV
smiles,measurement,setting,value
NC/C(=C/F)CCc1ccc(F)cc1 [MOFEGILINE],IC50,[1],> 10 µM
same,IC50,[2],5 nM

# From ChEMBL document CHEMBL3886634, “Substituted 3-haloallylamine inhibitors of ASSAO and uses thereof” (2016)
